system: Plasmodium falciparum; experiment: GSK_TCMDC: Inhibition of Plasmodium falciparum 3D7 in whole erythrocytes, using parasite LDH activity as an index of growth.; assay type: functional, organism-based; details: Plasmodium falciparum, 3D7

Row | Structure (SMILES) | XC50
1 | Nc1nc(N)c2c(Sc3ccc(F)cc3)cccc2n1 | 1070 nM
2 | Cc1cc2c3c(N)nc(N)nc3ccc2n1C(C)C | 8.52 nM
3 | O=C(/C=C/c1ccc(Br)cc1)NCCCCCN1CCC(c2c[nH]c3ccccc23)CC1 | 724 nM
4 | O=C(/C=C/c1ccc(Cl)c(Cl)c1)NCCCN1CCC(c2c[nH]c3ccccc23)CC1 | 966 nM
5 | CN(C)Cc1ccc(-c2cc3ncnc(Nc4ccc(OCc5cccc(F)c5)c(Cl)c4)c3s2)[nH]1 | 174 nM
6 | Cc1cc(OCCCN2CCCCC2)ccc1NC(=O)COc1ccc(Cl)cc1C(=O)c1cc(C#N)cc(C(F)(F)F)c1 | 1030 nM
7 | O=C(NCc1ccccc1)OC1CNCCC1c1ccc(C(O)Cc2ccccc2)cc1 (centres undefined) | 576 nM
8 | COc1cc(Nc2ccnc3cc(-c4ccncc4)ccc23)cc(OC)c1OC | 1080 nM
9 | O=C(/C=C/c1ccccc1Cl)Nc1ccc(Br)c(OCCN2CCN(CCN3CCOCC3)CC2)c1 | 763 nM
10 | CO/C(=C\C=C\c1cc2cc(Cl)c(Cl)cc2[nH]1)C(=O)NCCCN1CCN(c2cccc(O)c2)CC1 | 579 nM
11 | O=S(=O)(NCCN1CCCC1)c1ccc(-c2cccc(CNCc3ccc(F)cc3)c2)cc1F | 787 nM
12 | N=C1N=C(N)NCN1OCc1ccc(Cl)c(Cl)c1 | 194 nM
13 | Cc1cc(=O)c(-c2ccc(OCc3ccc(OC(F)(F)F)cc3)cc2)c(C)[nH]1 | 736 nM
14 | Cc1nc(-c2cccc(NC(C)C(=O)Nc3cc(C(F)(F)F)ccc3N3CCOCC3)c2)cs1 (centres undefined) | 241 nM
15 | COc1cc(C)cc(CN2CCC(Cc3ccccc3)CC2)c1O | 1020 nM
16 | Cc1cc(Nc2ccccc2)nc(NCCOc2ccccc2)n1 | 728 nM
17 | CN1CCC(NC(=O)c2cccc(Nc3cc(Nc4cccc(Br)c4)ncn3)c2)CC1 | 1010 nM
18 | Cc1ccc2[nH]c3c(NCCCN(C)C)ncnc3c2c1 | 650 nM
19 | CC(=O)Nc1csc(-c2cnc(/C=C(\C)C[C@@H]3OC[C@H](C[C@@H]4O[C@H]4[C@@H](C)[C@H](C)O)[C@@H](O)[C@H]3O)o2)c1 | 178 nM
20 | COC(=O)c1cccc(CNCc2cccc(-c3csc(-c4nc5ccccc5[nH]4)c3)c2)c1 | 693 nM
21 | CCO[C@H]1CN[C@H](C#Cc2cc3c(Nc4ccc(OCc5cccc(F)c5)c(Cl)c4)ncnc3s2)C1 | 939 nM
22 | CC1(C)N=C(N)N=C(N)N1CCc1ccccc1 | 47.4 nM
23 | COc1ccccc1-n1ccnc1SCC(=O)Nc1cccc(C(F)(F)F)c1 | 160 nM

Row | Structure (SMILES) | XC50
24 | CCN(CC)CCOc1ccc(N(Cc2ccc(C(C)(C)C)cc2)C(=O)c2ccc(Cc3ccccc3)cc2)cc1OC | 773 nM
25 | Cc1cccc2c(/C=C/C(=O)NC3CCC(CCN4CCc5ccc(C#N)cc5CC4)CC3)c[nH]c12 (centres undefined) | 1220 nM
26 | NCCCNc1nc(Nc2cccc(C(N)=O)c2)c2c(=O)[nH]ccc2n1 | 594 nM
27 | CC(Cc1ccc(-c2nc3ccccc3[nH]2)cc1)NCC(O)c1cccc(C(F)(F)F)c1 (centres undefined) | 352 nM
28 | O=C(Nc1cccc(CN2CCCN(CC3CCCCC3)CC2)c1)c1cc2ccccc2s1 | 814 nM
29 | CCCCCCCNCCNc1cc(C)nc2ccccc12 | 386 nM
30 | Cc1nn(-c2cccc(C(F)(F)F)c2)c2sc(C(=O)NC3CCN(C(C)C)CC3)cc12 | 898 nM
31 | Cc1nc2ccc(S(=O)(=O)Nc3ccc(C(=O)N[C@@H](CCC(=O)O)C(=O)O)cc3)cc2c(=O)[nH]1 | 1010 nM
32 | c1ccc(CNc2nc(NCCc3c[nH]cn3)nc(N3CCCC4CCCCC43)n2)cc1 (centres undefined) | 834 nM
33 | CC(Cc1ccc(CNC(=O)c2ccc(CC(C)NCCc3cccc(Cl)c3)cc2)cc1)NCCc1cccc(Cl)c1 (centres undefined) | 696 nM
34 | N#Cc1cnc2cc(-c3cnc(CNCCN4CCOCC4)s3)ccc2c1Nc1ccc(Oc2ccccc2)cc1 | 726 nM
35 | Cc1cc(CNC(c2ccccc2)C2CCC2)cc(C)c1O (centres undefined) | 890 nM
36 | COc1cc(NC(=O)c2ccc(-c3ccccc3)cc2)ccc1OCCCN1CCC(c2ccccc2)CC1 | 752 nM
37 | CC(Cc1ccc(S(=O)(=O)N(C(C)C)C(C)C)cc1)NCC(O)c1cccc(C(F)(F)F)c1 (centres undefined) | 685 nM
38 | O=C(NCCN1CCCC1)N1CCCN(c2ncnc3cc(-c4ccc(F)cc4)sc23)CC1 | 902 nM
39 | O=[N+]([O-])c1ccccc1C=NN=c1c2c([nH]c3ccccc13)CCCC2 | 311 nM
40 | CCC(CC)C(CC(=O)NC(C)(C)CCc1ccccc1OC)Nc1ccc(C#N)c2ccccc12 (centres undefined) | 796 nM
41 | CC(=NNC(S)=NCc1ccco1)c1ccccn1 | 254 nM
42 | CCN(CC)CCNC(=O)c1ccc(N/C=C2\C(=O)Nc3ccc(S(=O)(=O)Cc4c(Cl)cccc4Cl)cc32)cc1 | 840 nM
43 | COCC(=O)N(Cc1cccc(-c2ccc(CNCCc3ccccc3)cc2)c1)C1CCN(Cc2ccccc2)CC1 | 1100 nM
44 | COc1ccc(CN(C)CCCc2ccc(NC(=O)c3cccc4c(=O)c5cccc(F)c5[nH]c34)cc2)cc1OC | 937 nM
45 | COc1ccc2c(=O)ccn(CCN3CCC(NCc4ccc5c(n4)NC(=O)CS5)CC3)c2c1 | 233 nM
46 | CN(c1cc(NC(=O)c2ccc(F)cc2)ccn1)C1CCN(Cc2cccc(C#N)c2)CC1 | 831 nM

Row | Structure (SMILES) | XC50
47 | CCNC[C@H]1CCCN1CCOc1ccc(-n2cnc3cc(-c4ccc(Cl)cc4)sc3c2=O)cc1OC | 808 nM
48 | CCOc1ccc(NC(=O)c2ccc(NCCCN3CC(C)CC(C)C3)c([N+](=O)[O-])c2)cc1 (centres undefined) | 705 nM
49 | CC(=O)OC[C@H]1O[C@@H](C#Cc2ccccc2)[C@H](OC(C)=O)[C@@H](OC(C)=O)[C@@H]1OC(C)=O | 283 nM
50 | O=C(NCCCCN1CCC(c2cccc3ccccc23)CC1)c1ccc(NC(=O)c2ccc(Cl)cc2)cc1 | 784 nM
51 | Cn1cncc1-c1ccc2ncnc(Nc3ccc4c(cnn4Cc4ccccc4)c3)c2c1 | 180 nM
52 | COc1ccc(CCN(C)CCCOc2ccc(NC(=O)c3cccc4c(=O)c5ccccc5[nH]c34)cc2)cc1OC | 912 nM
53 | CCC/C=C/c1c(CNCCCNc2cc(=O)c3ccccc3[nH]2)sc(CC)c1Br | 889 nM
54 | CN(C)CCOc1cc(NC(=O)Nc2cccc([N+](=O)[O-])c2)ccc1I | 743 nM
55 | C=CCn1c(SCC(=O)Nc2cc(Cl)ccc2Cl)nc2sc(C)cc2c1=O | 71.6 nM
56 | N#Cc1ccc(N[C@@H](CC2CCCCC2)C(=O)NCc2cc(F)c(F)cc2F)c2ccccc12 | 946 nM
57 | CC(C)CCNCc1ccc(OCc2cccc(COc3ccc(CNCCC(C)C)cc3I)c2)c(I)c1 | 453 nM
58 | CCc1ccnc2c(N3CCCC3=O)cc(C(=O)N[C@@H](Cc3ccccc3)[C@H](O)CNC3CCOCC3)cc12 | 381 nM
59 | O=C(NCCCCN1CCC(c2ccc3c(c2OCCOCCO)CCCC3)CC1)c1ccc(-c2ccc(C(F)(F)F)cc2)cc1 | 275 nM
60 | O=C(NC1CCN(Cc2ccccc2)CC1)c1ccc(-c2nc3cc(Cl)c(Cl)cc3[nH]2)s1 | 308 nM
61 | COc1ccc(-c2ccc(CNC(=O)c3ccc(C#N)cc3)c(F)c2)cc1CN1CCCN(C)CC1 | 1140 nM
62 | CCCc1cc(NCC)nc(Nc2ccc(C)cc2)n1 | 894 nM
63 | N#Cc1ccc2[nH]cc(CN3CCC4(CC3)CN(CCNCc3ccccc3)C(=O)CO4)c2c1 | 758 nM
64 | O=c1[nH]ccc2nc(N[C@@H]3CCCNC3)nc(Nc3ccc(S(=O)(=O)N4CCOCC4)cc3)c12 | 742 nM
65 | CC(C)c1ncc(-c2ccncc2)c(C2CCC(CNC(=O)c3cccnc3)CC2)n1 (centres undefined) | 776 nM
66 | O=C(c1cccc(-c2noc(C(F)(F)F)n2)c1)N1CCN(c2nsc3ccccc23)CC1 | 145 nM
67 | COc1ccc(CNCc2cccc(-c3cccc(-c4nc5cc(F)ccc5[nH]4)c3)c2)cc1 | 300 nM
68 | Nc1ncc(-c2ccsc2)c2ccc(-c3cc(NCc4ccccc4)ncn3)cc12 | 861 nM
69 | CC(CN1CCN(C)CC1)C(=O)Nc1cccc(-c2ccc(-c3nc4ccccc4[nH]3)s2)c1 (centres undefined) | 632 nM
